Target: T1, BacA (Bacillus subtilis, UniProt P39638)
T1 sequence (P39638 1-204): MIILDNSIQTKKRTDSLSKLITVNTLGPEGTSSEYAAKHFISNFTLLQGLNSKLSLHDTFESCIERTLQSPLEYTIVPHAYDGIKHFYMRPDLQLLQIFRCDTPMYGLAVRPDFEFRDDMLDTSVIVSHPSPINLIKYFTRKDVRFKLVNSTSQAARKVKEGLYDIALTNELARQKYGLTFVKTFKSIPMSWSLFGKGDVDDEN
Test: HPLC, UV, 1H NMR and ESI-MS of products
Assay type: biochemical
Settings: decarboxylation; Tris-HCl pH 8.1

O=C(O)C(=O)CC1(C(=O)O)C=CC(O)C=C1 (stereo not shown) [prephenate]
HPLC, UV, 1H NMR and ESI-MS of products: prephenate is a substrate for BacA and not for BacB
